# Columns and labels:
# normal volunteers [1] = system: normal volunteers; set-up: method as in PMID 19643947, PMID 21426372, PMID 24341382; settings: cited from earlier work
# normal volunteers [2] = system: normal volunteers; set-up: method as in PMID 19643947, PMID 21426372, PMID 24341382; settings: cited from earlier work; remark: listed apart in the source
# [3] = system: patients with severe neutrophilic asthma; set-up: method as in PMID 23291349; settings: significance lost when all patients analysed together; cited from earlier work
# BALB/c mice [4] = experiment: House dust mite/Rhinovirus exacerbated asthma model; type: in vivo, mouse; settings: 24 hours post RV1b infection; for Total BALF neutrophils: PXS-4728A 2, dexamethasone 2, azithromycin 25 mg.kg^−1 ip.
# Experimental: Study performed at the University of Newcastle under local ethics committee. BALB/c mice were sensitized and challenged intranasally to 50 μg of crude HDM extract (Dermatophagoides pteronyssinus extract was obtained from Greer Laboratories) on days 0, 1 and 2 followed by four exposures of 5 μg HDM daily from day 14 to day 17 delivered in 50 μl of sterile saline. Animals were then infected on day 18 with infective Human Rhinovirus 1b RV1B41 (2.5 × 10^6 median tissue culture infective dose) intranasally. Mice were intranasally administered 50 μl infective or ultraviolet light (UV)–inactivated RV1B41. Mice were euthanized 24 hours after the rhinovirus challenge. BAL analysis was performed for total and differential counts and airway hyperreactivity (AHR) was assessed invasively by measurement of total lung resistance and dynamic compliance (BUXCO) in response to methacholine challenge as previously described. […]. Dose of azithromycin was chosen based on previously described findings, in respiratory viral infection models.
# BALB/c mice [5] = experiment: LPS airway inflammation, 6 hour time point; settings: 6 hours after LPS; PXS-4728A 0.2 or 2 mg.kg^−1, dexamethasone 10 mg.kg^−1, oral 1 hour prior
# BALB/c mice [6] = experiment: Klebsiella pneumoniae lung infection; settings: 24 hours
# C57/BL6 mice = experiment: Cecal ligation and puncture (CLP) induced sepsis; settings: 6 hours; PXS-4728A 6 mg.kg^−1, dexamethasone 5 mg.kg^−1, oral 1 hour prior to surgery
# [7] = PXS-4728A 6 mg.kg^−1, dexamethasone 10 mg.kg^−1, oral 1 hour prior to infection
structure (smiles),measurement,setting,value
C[C@H](CO)Nc1nc(SCc2cccc(F)c2F)nc2[nH]c(=O)sc12 [AZD8309],Efficacy during inhaled LPS challenge,normal volunteers [1],efficacious
O=C(Nc1ccc(Cl)c(S(=O)(=O)N2CCNCC2)c1O)Nc1cccc(F)c1Cl [SB-656933],Increased neutrophil content in sputum as a result of ozone challenge,normal volunteers [2],inhibit
CC[C@@H](Nc1c(Nc2cccc(C(=O)N(C)C)c2O)c(=O)c1=O)c1ccc(C)o1 [SCH527123],Increased neutrophil content in sputum as a result of ozone challenge,normal volunteers [2],inhibit
CC[C@H]1OC(=O)[C@H](C)[C@@H](O[C@H]2C[C@@](C)(OC)[C@@H](O)[C@H](C)O2)[C@H](C)[C@@H](O[C@@H]2O[C@H](C)C[C@H](N(C)C)[C@H]2O)[C@](C)(O)C[C@@H](C)CN(C)[C@H](C)[C@@H](O)[C@]1(C)O [azithromycin],Exacerbation rates,[3],reduced exacerbation rates
same,Airways hyperreactivity to methacholine challenge,"BALB/c mice [4]; PXS-4728A 2, azithromycin 25 mg.kg^−1 ip.",significantly reduced
same,Total BALF neutrophils,BALB/c mice [4],significantly dampened
"C[C@@H]1C[C@H]2[C@@H]3CCC4=CC(=O)C=C[C@]4(C)[C@@]3(F)[C@@H](O)C[C@]2(C)[C@@]1(O)C(=O)CO [dexamethasone, reference compound]",Total BALF neutrophils,BALB/c mice [4],no impact
same,Influx of neutrophils in BALF,BALB/c mice [5],reduction
same,Neutrophil migration into the airway spaces (BALF),BALB/c mice [6]; [7],significantly dampened
same,Total leukocyte migration into the airway spaces (BALF),BALB/c mice [6]; [7],significantly dampened
same,"Log 10-CFU in the lung (bacterial load), average","BALB/c mice [6]; PXS-4728A 6 mg.kg^−1, dexamethasone 10 mg.kg^−1, vehicle 7.59",8.86 LOG 10-CFU
same,Peritoneal neutrophils,C57/BL6 mice,greatly diminished
same,Total peritoneal inflammatory cells,C57/BL6 mice,greatly diminished

# Source: PMC4389443 (Respiratory Research, 2015)
